Assay: In vitro drug release from drug-loaded titania nanotube arrays (TNAs) in PBS at 37° C.
Format: physicochemical
Experimental: A total of 500 μL of DEX solution was pipetted onto the nanotube surface (pipetting 100 μL for 5 times) and allowed to dry in fume hood for an hour, ensuring that the nanotube array surface was completely dry prior to each pipetting and the release studies. Then, DEX-loaded TNA samples were immersed in Eppendorf tubes containing 100 μL of PBS (1× phosphate buffered saline) and were placed in a water bath kept at 37° C. For release measurements, all 100 μL from each releasing sample tube was transferred to a 96-well plate and measured using a SpectraMax M 2 Microplate Reader. The absorption of DEX was measured at 244 nm. After each measurement, the releasing medium was fully replaced with […] of fresh PBS.

[1] = 37° C., TNAs on polyimide and foil substrates
[2] = 37° C., TNAs on polyimide and foil substrates, PBS

| burst after contacting the PBS [1] | release profile [2] | release profile (37° C., ~0.5 μm-deep, 100 nm-diameter TNAs on polyimide) | relationship between nanotube diameter and release rate (nanotube diameters within the 30 nm-100 nm range) | difference in release data between the two drug loading methods (normal pipetting vs soaking) | duration of linear release [2] | duration of sustained release (TNA 2 micron long, 30 nm pore size, 37° C. (FIG. 6B)) | SMILES |
| --- | --- | --- | --- | --- | --- | --- | --- |
| no indication of a large burst | linear | linear | weak relationship | No significant difference |  |  | C[C@@H]1C[C@H]2[C@@H]3CCC4=CC(=O)C=C[C@]4(C)[C@@]3(F)[C@@H](O)C[C@]2(C)[C@@]1(O)C(=O)COP(=O)(O)O [Dexamethasone, dexamethasone sodium phosphate] |
| no indication of a large burst | linear |  |  |  | several weeks | nearly one month | Oc1ccc(C=Cc2cc(O)cc(O)c2)cc1 [Resveratrol] |

Reference: US20260151620A1, “IMPLANT MEDICAL DEVICES” (Case Western Reserve University, priority 2021, published 2026)
